{"source": "patent US20090082427A1", "about": "“Composition comprising wortmannin and its topical use for reducing human hair growth” (Reckitt Benckiser (UK) Limited, priority 2005, published 2009)", "type_in_all_cases": "cell-based, human", "key": {"[1]": {"tested_on": "hair follicle keratinocytes", "assay": "cell proliferation of hair follicle keratinocytes, cell number after 8 days", "conditions": "CV = 100", "description": "A study carried out to assess the effects of wortmannin on cell proliferation for hair follicle keratinocytes was performed on cells from 1 normal healthy individual.\n(§1) A composition was prepared comprising wortmannin at 10 milli-molar in a vehicle of dimethyl sulfoxide (DMSO). The levels of wortmannin were such that when the composition was added to the growth medium in the experiments, the level of wortmannin in the experimental medium was 50, 70, 100 or 140 micro-molar and the respective level of DMSO was 0.5%, 0.7%, 1.0%, 1.4% by weight.\n(§2) The control experiments were carried out using as the growth medium CM (control medium only as detailed below) and CV (control medium containing the DMSO vehicle but free of wortmannin). The experiments using the wortmannin composition were carried out using the wortmannin compositions in the control medium.\nFor experiments with hair follicle keratinocytes, Control Medium was keratinocyte serum-free medium (KSF-M) medium supplemented with penicillin/streptomycin, L-glutamine, epidermal growth factor and bovine pituitary extract.\n(§3) Results in terms of percentage cell number change after 8 days of the cells/follicles in the compositions were as follows in table 1."}, "dermal fibroblasts": {"tested_on": "dermal fibroblasts", "assay": "cell proliferation of dermal fibroblasts, cell number after 8 days", "conditions": "wortmannin 70 μm in medium, CV (medium + DMSO vehicle) = 100", "description": "(§4) A study was carried out to assess the effects of wortmannin on cell proliferation for dermal fibroblasts, follicular dermal papilla fibroblasts derived from 5 normal adults (3 females and 2 males).\nas §1, §2\n(§5) For experiments with dermal fibroblasts and follicular dermal papilla fibroblasts, Control Medium was RPMI 1640 media supplemented with penicillin/streptomycin, L-glutamine and Foetal Calf Serum.\nas §3"}, "[2]": {"tested_on": "follicular dermal papilla fibroblasts", "assay": "cell proliferation of follicular dermal papilla fibroblasts, cell number after 8 days", "conditions": "wortmannin 70 μm in medium, CV = 100", "description": "as §4, §1, §2, §5, §3"}, "[3]": {"tested_on": "Anagen (IV) intact hair follicles", "assay": "growth of isolated intact Anagen (IV) hair follicles, length increase after 8 days", "conditions": "CM 26, CV 9", "description": "A study was carried out to assess the effects of wortmannin on growth of Anagen (IV) intact hair follicles isolated intact from 2 females.\nas §1, §2\nFor experiments with intact hair follicle, Control Medium was Williams E medium supplemented with fungizone, penicilin/streptomycin, L-glutamine, insulin-like growth factor and hydrocortisone.\nas §3"}}}
{"smiles": "COC[C@H]1OC(=O)c2coc3c2[C@@]1(C)C1=C(C3=O)[C@@H]2CCC(=O)[C@@]2(C)C[C@H]1OC(C)=O", "note": "[wortmannin, 11-(acetyloxy)-1,6b,7,8,9a,10,11,11b-octahydro-1-(methoxymethyl)-9a,11b-di-methyl-[1S-(1α, 6bα,9aβ,11α, 11bβ)]-3H-furo[4,3,2-de]indeno[4,5-h]-2-benzopyran-3,6,9-trione]", "values": [{"measurement": "Hair follicle keratinocytes percentage cell number (normalized on CV results)", "setting": "[1]; wortmannin 50 μm in medium", "result": 75, "unit": "%"}, {"measurement": "Hair follicle keratinocytes percentage cell number (normalized on CV results)", "setting": "[1]; wortmannin 70 μm in medium", "result": 40, "unit": "%"}, {"measurement": "Hair follicle keratinocytes percentage cell number (normalized on CV results)", "setting": "[1]; wortmannin 100 μm in medium", "result": 30, "unit": "%"}, {"measurement": "Dermal fibroblasts percentage cell number (normalized on CV results)", "setting": "dermal fibroblasts", "result": 25, "unit": "%"}, {"measurement": "dermal papilla fibroblasts percentage cell number (normalized on CV results)", "setting": "[2]", "result": 34, "unit": "%"}, {"measurement": "Whole hair follicles (length increase in %)", "setting": "[3]; wortmannin 70 μm in medium", "result": 4, "unit": "%"}, {"measurement": "Whole hair follicles (length increase in %)", "setting": "[3]; wortmannin 140 μm in medium", "result": 4, "unit": "%"}]}
